In PubChem BioAssay AID2060497 (Molecular Pharmacology Branch, DTP, NCI, 2025):

Tested on: 317291-083-R-J1-PDC complex spheroids, viability
Assay: Anticancer human tumor 317291-083-R-J1-PDC patient-derived soft tissue sarcoma cell line growth inhibition [GQUAD]
Details: for IC50: curve of first compound; for viability, T/C: stronger effect = lower value
How it was run: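 Viability of tumor cells grown as complex spheroids with endothelial and stromal cells, exposed to drug combinations. Top concentration at or near clinical Cmax (else 10 microM), diluted in half-log increments.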

[1] = second compound 0.0316 µM, first compound 0.0316 µM
[2] = second compound 0.0316 µM, first compound 0.1 µM
[3] = second compound 0.0316 µM, first compound 0.316 µM
[4] = second compound 0.0316 µM, first compound 1 µM
[5] = second compound 0.0316 µM, first compound 3.16 µM
[6] = second compound 0.0316 µM, first compound 10 µM
[7] = second compound 0.1 µM, first compound 0.0316 µM
[8] = second compound 0.1 µM, first compound 0.1 µM
[9] = second compound 0.1 µM, first compound 0.316 µM
[10] = second compound 0.1 µM, first compound 1 µM
[11] = second compound 0.1 µM, first compound 3.16 µM
[12] = second compound 0.1 µM, first compound 10 µM
[13] = second compound 0.316 µM, first compound 0.0316 µM
[14] = second compound 0.316 µM, first compound 0.1 µM
[15] = second compound 0.316 µM, first compound 0.316 µM
[16] = second compound 0.316 µM, first compound 1 µM
[17] = second compound 0.316 µM, first compound 3.16 µM
[18] = second compound 0.316 µM, first compound 10 µM
[19] = second compound 1 µM, first compound 0.0316 µM
[20] = second compound 1 µM, first compound 0.1 µM
[21] = second compound 1 µM, first compound 0.316 µM
[22] = second compound 1 µM, first compound 1 µM
[23] = second compound 1 µM, first compound 3.16 µM
[24] = second compound 1 µM, first compound 10 µM
[25] = second compound 3.16 µM, first compound 0.0316 µM
[26] = second compound 3.16 µM, first compound 0.1 µM
[27] = second compound 3.16 µM, first compound 0.316 µM
[28] = second compound 3.16 µM, first compound 1 µM
[29] = second compound 3.16 µM, first compound 3.16 µM
[30] = second compound 3.16 µM, first compound 10 µM
[31] = second compound 10 µM, first compound 0.0316 µM
[32] = second compound 10 µM, first compound 0.1 µM
[33] = second compound 10 µM, first compound 0.316 µM
[34] = second compound 10 µM, first compound 1 µM
[35] = second compound 10 µM, first compound 3.16 µM
[36] = second compound 10 µM, first compound 10 µM
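Also: spheroids exposed to compounds for one week before readout.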
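For viability, T/C in this document: percent viability relative to DMSO vehicle wells taken as 100%.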

`COc1cccc2c1C(=O)c1c(O)c3c(c(O)c1C2=O)CC(O)(C(=O)CO)CC3OC1CC(N)C(O)C(C)O1` (stereo unspecified) + CN(C)c1ccc(Nc2c3ccc(NC(=O)CCN4CCCC4)cc3nc3cc(NC(=O)CCN4CCCC4)ccc23)cc1 gave an IC50 (second compound 0.0316 µM) of 71.7 nM, an IC50 (second compound 0.1 µM) of 65.3 nM and an IC50 (second compound 0.316 µM) of 57.4 nM. It also gave an IC50 (second compound 1 µM) of less than 31.6 nM, an IC50 (second compound 3.16 µM) of less than 31.6 nM and an IC50 (second compound 10 µM) of less than 31.6 nM. For the same molecule, the viability, T/C [1] was 82.7%, the viability, T/C [2] was 32.4% and the viability, T/C [3] was 21.1%. It also gave a viability, T/C [4] of 13.2%, a viability, T/C [5] of 0.97% and a viability, T/C [6] of 0.41%. For the same molecule, the viability, T/C [7] was 64.1%, the viability, T/C [8] was 41.8% and the viability, T/C [9] was 22.2%. The viability, T/C [10] was 12.1%, the viability, T/C [11] was 1.05% and the viability, T/C [12] was 0.35%. The viability, T/C [13] was 64.2%, the viability, T/C [14] was 35.1% and the viability, T/C [15] was 23.6%. The viability, T/C [16] was 8.77%, the viability, T/C [17] was 1.59% and the viability, T/C [18] was 0.73%. It also gave a viability, T/C [19] of 29.1%, a viability, T/C [20] of 18.6% and a viability, T/C [21] of 14.9%. For the same molecule, the viability, T/C [22] was 3.06%, the viability, T/C [23] was 0.9% and the viability, T/C [24] was 0.65%. The viability, T/C [25] was 28.8%, the viability, T/C [26] was 15.1% and the viability, T/C [27] was 12.1%. It also gave a viability, T/C [28] of 4.09%, a viability, T/C [29] of 0.51% and a viability, T/C [30] of 0.86%. It also gave a viability, T/C [31] of 9.63%, a viability, T/C [32] of 7.93% and a viability, T/C [33] of 3.54%. For the same molecule, the viability, T/C [34] was 1.41%, the viability, T/C [35] was 1.22% and the viability, T/C [36] was 0.51%.

For `Nc1ccn(C2OC(CO)C(O)C2(F)F)c(=O)n1` (stereo unspecified) + CN(C)c1ccc(Nc2c3ccc(NC(=O)CCN4CCCC4)cc3nc3cc(NC(=O)CCN4CCCC4)ccc23)cc1, the IC50 (second compound 0.0316 µM) was 44.5 nM, the IC50 (second compound 0.1 µM) was 37.7 nM and the IC50 (second compound 0.316 µM) was less than 31.6 nM. The IC50 (second compound 1 µM) was less than 31.6 nM, the IC50 (second compound 3.16 µM) was less than 31.6 nM and the IC50 (second compound 10 µM) was less than 31.6 nM. For the same molecule, the viability, T/C [1] was 62.2%, the viability, T/C [2] was 21.4% and the viability, T/C [3] was 12.5%. The viability, T/C [4] was 11.5%, the viability, T/C [5] was 13.7% and the viability, T/C [6] was 11.4%. It also gave a viability, T/C [7] of 54.9%, a viability, T/C [8] of 23.9% and a viability, T/C [9] of 13.7%. It also gave a viability, T/C [10] of 10.9%, a viability, T/C [11] of 10.9% and a viability, T/C [12] of 9.57%. For the same molecule, the viability, T/C [13] was 44.9%, the viability, T/C [14] was 27.4% and the viability, T/C [15] was 11.9%. For the same molecule, the viability, T/C [16] was 9.85%, the viability, T/C [17] was 9.6% and the viability, T/C [18] was 8.28%. The viability, T/C [19] was 26.9%, the viability, T/C [20] was 27.8% and the viability, T/C [21] was 10.5%. For the same molecule, the viability, T/C [22] was 7.35%, the viability, T/C [23] was 7.21% and the viability, T/C [24] was 7.95%. For the same molecule, the viability, T/C [25] was 15.6%, the viability, T/C [26] was 7.01% and the viability, T/C [27] was 6.98%. The viability, T/C [28] was 4.89%, the viability, T/C [29] was 4.18% and the viability, T/C [30] was 5.05%. For the same molecule, the viability, T/C [31] was 10.3%, the viability, T/C [32] was 3.73% and the viability, T/C [33] was 1.83%. For the same molecule, the viability, T/C [34] was 4.43%, the viability, T/C [35] was 2.4% and the viability, T/C [36] was 2.72%.

`O=C(c1cc(Cc2n[nH]c(=O)c3ccccc23)ccc1F)N1CCN(C(=O)C2CC2)CC1` + CN(C)c1ccc(Nc2c3ccc(NC(=O)CCN4CCCC4)cc3nc3cc(NC(=O)CCN4CCCC4)ccc23)cc1 was tested, and the IC50 (second compound 0.0316 µM) was 8520 nM, the IC50 (second compound 0.1 µM) was 8530 nM and the IC50 (second compound 0.316 µM) was 9790 nM. It also gave an IC50 (second compound 1 µM) of less than 31.6 nM, an IC50 (second compound 3.16 µM) of less than 31.6 nM and an IC50 (second compound 10 µM) of less than 31.6 nM. It also gave a viability, T/C [1] of 107%, a viability, T/C [2] of 88.7% and a viability, T/C [3] of 93.2%. The viability, T/C [4] was 92.8%, the viability, T/C [5] was 84.9% and the viability, T/C [6] was 44.1%. The viability, T/C [7] was 111%, the viability, T/C [8] was 93.4% and the viability, T/C [9] was 101%. It also gave a viability, T/C [10] of 96.7%, a viability, T/C [11] of 76.3% and a viability, T/C [12] of 45.8%. The viability, T/C [13] was 84.4%, the viability, T/C [14] was 83.3% and the viability, T/C [15] was 83.8%. The viability, T/C [16] was 67.6%, the viability, T/C [17] was 73.5% and the viability, T/C [18] was 48%. For the same molecule, the viability, T/C [19] was 55%, the viability, T/C [20] was 36.5% and the viability, T/C [21] was 44.2%. It also gave a viability, T/C [22] of 48.1%, a viability, T/C [23] of 52.3% and a viability, T/C [24] of 45.8%. It also gave a viability, T/C [25] of 34.7%, a viability, T/C [26] of 27.9% and a viability, T/C [27] of 22.8%. For the same molecule, the viability, T/C [28] was 21.4%, the viability, T/C [29] was 16.6% and the viability, T/C [30] was 15.9%. It also gave a viability, T/C [31] of 5%, a viability, T/C [32] of 12.6% and a viability, T/C [33] of 14.9%. It also gave a viability, T/C [34] of 11.7%, a viability, T/C [35] of 31.9% and a viability, T/C [36] of 6.71%.
